Experimental findings from patent publication US7517989B2, “Piperidine derivatives useful as modulators of chemokine receptor activity” (AstraZeneca AB, priority 2002, dated 2009) are described below.

Assay [1] relates to Human eosinophils. The experiment in a line: Human eosinophil chemotaxis. The class given is cell-based. As to conditions: compound concentration not given. On the procedure: Human Eosinophil Chemotaxis
Human eosinophils were isolated from EDTA anticoagulated peripheral blood as previously described (Hansel et al., J. Immunol. Methods, 1991, 145, 105-110). The cells were resuspended at 10×10^6 ml^−1 in RPMI containing 200 IU/ml penicillin, 200 μg/ml streptomycin sulphate and supplemented with 10% HIFCS, at room temperature.
Eosinophils (700 μl) were pre-incubated for 15 mins at 37° C. with 7 μl of either vehicle or compound (100× required final concentration in 10% DMSO). The chemotaxis plate (ChemoTx, 3 μm pore, Neuroprobe) was loaded by adding 28 μl of a concentration of eotaxin (0.1 to 100 nM) containing a concentration of a compound according to the Examples or solvent to the lower wells of the chemotaxis plate. The filter was then placed over the wells and 25 μl of eosinophil suspension were added to the top of the filter. The plate was incubated for 1 hr at 37° C. in a humidified incubator with a 95% air/5% CO2 atmosphere to allow chemotaxis.
The medium, containing cells that had not migrated, was carefully aspirated from above the filter and discarded. The filter was washed once with phosphate buffered saline (PBS) containing 5 mM EDTA to remove any adherent cells. […] The number of eosinophils migrating was quantified according to the method of Strath et al., J. Immunol. […]

Assay [2] concerns the target T1, human H1 receptor (Homo sapiens, UniProt P35367).
T1 construct: purchased Euroscreen SA, Brussels, Belgium ES-390-M; host or cells: recombinant CHO-1 cells (membranes)
The experiment in a line: Histamine H1 receptor binding, [3H]-pyrilamine displacement. As to conditions: 1 nM [3H]-pyrilamine; membranes of recombinant CHO-1 cells expressing human H1 receptor; read-out: H1 antagonism pKi (converted).

Structures are written as SMILES.

T1 sequence (P35367 whole entry): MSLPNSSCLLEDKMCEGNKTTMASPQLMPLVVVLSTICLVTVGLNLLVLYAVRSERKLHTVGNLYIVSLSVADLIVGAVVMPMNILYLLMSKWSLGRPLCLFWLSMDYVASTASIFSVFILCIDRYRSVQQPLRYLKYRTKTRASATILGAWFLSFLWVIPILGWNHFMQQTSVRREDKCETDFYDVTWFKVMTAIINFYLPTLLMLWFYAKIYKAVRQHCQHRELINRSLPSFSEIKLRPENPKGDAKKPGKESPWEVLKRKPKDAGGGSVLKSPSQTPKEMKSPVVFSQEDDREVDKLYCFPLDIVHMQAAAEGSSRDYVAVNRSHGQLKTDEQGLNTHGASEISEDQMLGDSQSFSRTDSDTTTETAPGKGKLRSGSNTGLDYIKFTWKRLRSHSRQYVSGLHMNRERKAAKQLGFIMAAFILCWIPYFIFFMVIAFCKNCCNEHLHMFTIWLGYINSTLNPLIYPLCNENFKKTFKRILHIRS

As to `O=C(O)C(c1ccccc1)N1CCCC(CN2CCC(Oc3ccc(Cl)c(Cl)c3)CC2)C1` (single isomer, unassigned) [Example 5, 3-[[4-(3,4-dichlorophenoxy)-1-piperidinyl]methyl]-alpha-phenyl-1-piperidineacetic acid], in assay [1], the “% Inhibition (3 nM Human Eotaxin)” value is listed as 96.9%.
`Cc1cc(Cl)ccc1OC1CCN(CC2CN(C(C(=O)O)c3ccccc3)CCO2)CC1` (single isomer, unassigned) [Example 7]: in assay [2], the Ki is 631 nM.
Consider `Cc1cc(Cl)ccc1OC1CCN(CC2CN(C(C(=O)O)c3ccccc3)CCO2)CC1` (single isomer, unassigned) [Example 8], for which, in assay [2], the Ki was 126 nM.
`Cc1c(Cl)ccc(OC2CCN(CC3CN(C(C(=O)O)c4ccccc4)CCO3)CC2)c1Cl` (single isomer, unassigned) [Example 9]: the Ki in assay [2] was 316 nM.
On to `Cc1c(Cl)ccc(OC2CCN(CC3CN(C(C(=O)O)c4ccccc4)CCO3)CC2)c1Cl` (single isomer, unassigned) [Example 10], for which the Ki in assay [2] is 794 nM.
As for `Cc1c(Cl)ccc(OC2CCN(CC3CN(C(C(=O)O)c4ccccc4)CCO3)CC2)c1Cl` (single isomer, unassigned) [Example 11], in assay [2], the Ki is 251 nM.
Turning to `Cc1c(Cl)ccc(OC2CCN(CC3CN(C(C(=O)O)c4ccccc4)CCO3)CC2)c1Cl` (single isomer, unassigned) [Example 12], in assay [2], the Ki is 31.6 nM.
Turning to `O=C(O)[C@@H](c1ccccc1)N1CCO[C@H](CN2CCC(Oc3ccc(Cl)c(Cl)c3)CC2)C1` [Example 2, (α^4R,2R)-2-[[4-(3,4-dichlorophenoxy)-1-piperidinyl]methyl]-α-phenylmorpholineacetic acid], in assay [1], the “% Inhibition (3 nM Human Eotaxin)” value is reported as 96.4%.
In the case of `O=C(O)c1ccccc1CN1CCO[C@H](CN2CCC(Oc3ccc(Cl)c(Cl)c3)CC2)C1` [Example 13, 2-[[(2R)-2-[[4-(3,4-dichlorophenoxy)-1-piperidinyl]methyl]-4-morpholinyl]methyl]-benzoic acid], in assay [2], the Ki was 31.6 nM.
Take `O=C(O)c1ccccc1N1CCO[C@H](CN2CCC(Oc3ccc(Cl)c(Cl)c3)CC2)C1` [Example 15, 2-[(2R)-2-[[4-(3,4-dichlorophenoxy)-1-piperidinyl]methyl]-4-morpholinyl]-benzoic acid]: the Ki in assay [2] is 25.1 nM.
